Test: Inhibition of HIV-1 isolate YTA48P HIV-1 gp120

IC50: 610 nM
Compound: CC1(C)CC(NC(=O)C(=O)Nc2ccc(Cl)cc2)CC(C)(C)N1 [N-(4-chlorophenyl)-N'-(2,2,6,6-tetramethylpiperidin-4-yl)-oxalamide]

Reference: BindingDB's records for doi:10.1016/j.ejmech.2014.09.012 (Shandong University, 2014)
